Source: patent publication US10882856B2 (BeiGene, Ltd., priority 2017, dated 2021)
Like-named read-outs stand apart in the source and are kept apart here.

Legend:
IDO1 [1] = target: T1, IDO1 (Homo sapiens, UniProt P14902); experiment: IDO1 enzymatic assay; format: biochemical; parameters: His tag (N); made in house; host or cells: E. coli
Method in brief: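 Assays were run in 50 mM potassium phosphate pH 7.5 with 0.1% BSA for 1.5 hours at 24 °C. Each contained 50 nM E. coli-purified, N-terminally His-tagged IDO1, compound, 1.3 mM D-tryptophan, 5 mM L-ascorbic acid, methylene blue and 0.4 mg/mL catalase. IC50 was calculated from remaining enzyme activity across a rising compound series, with activity taken as the slope of N'-formylkynurenine formation read continuously at 321 nm for 1 hour.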

[2] = target: T2, cellular TDO2 in HEK293-TDO2 cells (Homo sapiens, UniProt P48775); experiment: 293-TDO2 cell-based assay (Kyn colorimetric); conditions: 48 hours of incubation
T2 construct: expressed in transfected cells; host or cells: HEK293 (ATCC), stably transfected
Method in brief: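 Kyn formed from L-Trp was read colorimetrically at 480 nm (TCA deproteinisation, then 2% 4-(dimethylamino)benzaldehyde). Compounds were added to 293-TDO2 cells 4 h post-seeding and left 48 h at 37° C. A four-parameter logistic model gave IC50 values.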

IDO1 [3] = target: T1, IDO1; experiment: Hela cell-based IDO1 assay; conditions: Hela cells
Method in brief: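 HeLa cells were seeded at 8000 per well in 96-well plates in phenol red-free DMEM with 10% FBS. After 4 hours, DMSO-diluted compound dilutions were added with IFN-γ (final 100 ng/mL) and 0.4 mM L-Trp, and cells were kept 48 hours at 37 °C, 5% CO2. Supernatant was deproteinised with trichloroacetic acid, and kynurenine was measured at 480 nm after adding 2% 4-(dimethylamino)benzaldehyde. Potency came from four-parameter logistic fits in XLfit.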

T2 sequence (P48775 whole entry): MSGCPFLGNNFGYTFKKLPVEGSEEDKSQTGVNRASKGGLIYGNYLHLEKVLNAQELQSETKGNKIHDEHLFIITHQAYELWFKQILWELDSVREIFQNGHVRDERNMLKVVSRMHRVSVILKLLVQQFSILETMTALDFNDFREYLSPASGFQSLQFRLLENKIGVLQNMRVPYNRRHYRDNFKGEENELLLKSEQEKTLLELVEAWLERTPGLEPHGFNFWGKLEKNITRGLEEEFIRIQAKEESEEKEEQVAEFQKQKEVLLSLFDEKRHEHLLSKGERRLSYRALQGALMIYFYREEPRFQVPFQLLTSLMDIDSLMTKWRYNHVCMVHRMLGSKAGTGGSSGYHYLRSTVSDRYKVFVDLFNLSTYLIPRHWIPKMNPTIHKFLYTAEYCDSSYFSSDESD
T1 sequence (P14902 whole entry): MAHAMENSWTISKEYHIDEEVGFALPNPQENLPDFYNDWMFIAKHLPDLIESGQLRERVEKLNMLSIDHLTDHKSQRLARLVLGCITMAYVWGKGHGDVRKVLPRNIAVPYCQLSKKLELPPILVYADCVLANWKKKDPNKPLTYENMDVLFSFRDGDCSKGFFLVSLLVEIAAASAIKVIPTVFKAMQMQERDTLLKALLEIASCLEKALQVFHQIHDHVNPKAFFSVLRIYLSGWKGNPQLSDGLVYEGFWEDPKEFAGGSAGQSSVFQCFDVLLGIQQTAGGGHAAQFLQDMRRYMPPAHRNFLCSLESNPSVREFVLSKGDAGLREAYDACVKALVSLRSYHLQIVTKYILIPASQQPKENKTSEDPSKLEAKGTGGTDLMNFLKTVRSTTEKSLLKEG

IC50 (IDO1 [1]; read-out: Enzyme IC50 IDO1) [nM]	EC50 [2] [nM]	EC50 (IDO1 [3]) [nM]	IC50 (IDO1 [1]; heading: Enzyme IC50 IDO1) [nM]	Structure (SMILES)
> 10000	> 10000	7190		O[C@@H](c1c(C2CC2)ccc2cncn12)[C@H]1CC[C@H](c2ccc3ccccc3c2)CC1 (single isomer, unassigned) [Example D136b]
2500	> 10000	6220		O[C@@H](c1c(C2CC2)ccn2cncc12)[C@H]1CC[C@H](c2ccnc3ccccc32)CC1 (single isomer, unassigned) [Example C130b]
1600	> 10000	9770		CN(C)C(=O)c1ccc([C@H]2CC[C@H]([C@@H](O)c3c(C4CC4)ccc4cncn34)CC2)cc1 (single isomer, unassigned) [Example D125b]
75	> 10000	977		COc1ccc(C2CCC(C(O)c3c(C4CC4)ccc4cncn34)CC2)c2ccccc12 (stereo not drawn) [Example D139, (6-cyclopropylimidazo[1,5-a]pyridin-5-yl)(4-(4-methoxynaphthalen-1-yl)cyclohexyl)methanol]
40	> 10000	188		COc1ccc(C2CCC(C(O)c3c(C4CC4)ccc4cncn34)CC2)cc1Cl (stereo not drawn) [Example D148, (4-(3-chloro-4-methoxyphenyl)cyclohexyl)(6-cyclopropylimidazo[1,5-a]pyridin-5-yl)methanol]
57	> 10000	157		CC(C)c1ccc2cncn2c1C(O)C1CCC(c2ccc(Cl)cc2)CC1 (stereo not drawn) [Example D115, (4-(4-chlorophenyl)cyclohexyl)(6-isopropylimidazo[1,5-a]pyridin-5-yl)methanol]
160	> 10000	1100		OC(c1c(C2CC2)ccn2cncc12)C1CCC(c2ccccc2C(F)(F)F)CC1 (stereo not drawn) [Example C116]
36	> 10000	1260		OC(c1c(C2CC2)ccc2cncn12)[C@H]1CC[C@H](c2ccc(C(F)(F)F)nc2)CC1 (single isomer, unassigned) [Example D107a]
40	> 10000	64		OC(c1c(C2CC2)ccc2cncn12)C1CCC(c2ccc(F)c(F)c2)CC1 (stereo not drawn) [Example D126, (6-cyclopropylimidazo[1,5-a]pyridin-5-yl)(4-(3,4-difluorophenyl)cyclohexyl)methanol]
1500	> 10000	> 10000		O[C@@H](c1c(C2CC2)ccn2cncc12)[C@H]1CC[C@H](c2cccc3ccccc32)CC1 (single isomer, unassigned) [Example C121b]
	> 10000	6770	> 10000	COc1ccc([C@H]2CC[C@H]([C@@H](O)c3c(C4CC4)ccc4cncn34)CC2)cc1 (single isomer, unassigned) [Example D102b]
62	> 10000	583		Oc1ccc(C2CCC(C(O)c3c(C4CC4)ccc4cncn34)CC2)c2ccccc12 (stereo not drawn) [Example D138, (6-cyclopropylimidazo[1,5-a]pyridin-5-yl)(4-(4-hydroxynaphthalen-1-yl)cyclohexyl)methanol]
4100	> 10000	> 10000		OC(c1c(C2CC2)ccn2cncc12)C1CCN(c2ccc(F)cc2)CC1 (single isomer, unassigned) [Example C137b]
30	> 10000	203		OC(c1c(C2CC2)ccc2cncn12)[C@H]1CC[C@H](c2ccc(F)cc2Cl)CC1 (single isomer, unassigned) [Example D130a]
64	> 10000	188		O[C@H](c1c(C2CC2)ccn2cncc12)[C@H]1CC[C@H](c2ccc(F)c(Cl)c2)CC1 (single isomer, unassigned) [Example C132a]
54	> 10000	462		O=Cc1ccc(C2CCC(C(O)c3c(C4CC4)ccc4cncn34)CC2)cc1 (stereo not drawn) [Example D123, 4-(4-((6-cyclopropylimidazo[1,5-a]pyridin-5-yl)(hydroxy)methyl)cyclohexyl)benzaldehyde]
